Tests used:
MIA Paca-2 tumors [1] = conditions: mice, single dose; cited from earlier work
MIA Paca-2 tumors [2] = assay: Survival study, phototreatment efficacy (Example 1); type: in vivo
Protocol: Survival study. 5×10^6 MIA Paca-2 cells (obtained from ATTC) were injected in the right flank female nude mice mice (5 weeks, Jackson Labs, #007850). […] N=5-6. Dose for Dox-PoP is 7 mg/kg for Dox and the dose of PoP was adjusted to be equivalent to that of Dox-PoP 7 mg/kg (Dox to lipid loading ratio 1:5), which is 1.225 mg/kg (1.21 μmol/kg Pyro-phospholipid). […] 21 mg/kg of sterically stabilized liposomal Dox (HSPC:CHOL:DSPE-PEG-2K=56.3:38.4:5.3% mole) was used for standard treatment of Doxil®. Free Dox 7 mg/kg was used as a free drug control. 1 h after intravenous injection, tumors that need laser treatment were all irradiated at a fluence rate of 300 W/cm^2 for 16 min 40 s (total fluence 300 J/cm^2). HPPH was diluted in PBS containing 2% ethanol and 0.2% Tween 80 and injected at a dose of 1.21 μmol/kg. Light treatment was performed 24 h post injection. Tumor size was monitored 2-3 times per week and tumor volumes were estimated by measuring three tumor dimensions using a caliper and the ellipsoid formula: Volume=π·L·W·H/6, where L, W and H are the length, width and height of the tumor, respectively. The weights of the mice were monitored every week. MIA PaCa-2 mice were sacrificed when the volume exceeded 10 times of its initial volume.
For Kaplan-Meier survival curve, each pair of group were compared by Log-rank (Mantel-Cox) test. […]

[3] = mice; cited from earlier work

COc1cccc2c1C(=O)c1c(O)c3c(c(O)c1C2=O)C[C@@](O)(C(=O)CO)C[C@@H]3O[C@H]1C[C@H](N)[C@H](O)[C@H](C)O1 [Free Dox, Doxorubicin]
maximum tolerated dose (MIA Paca-2 tumors [1]): 7 mg/kg | median survival (MIA Paca-2 tumors [2]; 7 mg/kg, single dose, no laser): 19 days

C=CC1=C(C)c2cc3[nH]c(c4c5nc(cc6[nH]c(cc1n2)c(C)c6CC)C(C)=C5C(=O)C4)C(CCC(=O)OC(COC(=O)CCCCCCCCCCCCCCC)COP(=O)([O-])OCC[N+](C)(C)C)C3C (stereo not shown) [Pyro-phospholipid]
well-tolerated intravenous dose [3]: ≤ 1000 mg/kg

HPPH
median survival (MIA Paca-2 tumors [2]; conventional PDT, 1.21 μmol/kg, light 24 h post injection, 300 J/cm^2): 38 days
